Consider three molecules from article PMC9343461, “Molecular and in vivo studies of a glutamate-class prolyl-endopeptidase for coeliac disease therapy” (Nature Communications, 2022).

One may read the IC50 as the midpoint of a concentration-inhibition curve.

Test [1] concerns the target T1, neprosin (mature catalytic domain, recombinant) (Nepenthes ventricosa x Nepenthes alata, UniProt C0HLV2).
T1 construct: Mature catalytic domain S129-Q380 from autolysis of pro-neprosin at P128-S129 (pro-domain R25-P128 removed); C-terminal Ala-Ile-Ala plus His6 tag kept; expressed in human Expi293F cells; glycosylated at N145 and N152; monomer
Kind of test: fluorogenic peptide cleavage (FS6-QPQL), inhibition curve. It counts as biochemical.

Test [2] concerns the target T2, mature neprosin (catalytic domain, S129-Q380) with C-terminal His6 tag (Nepenthes x ventrata, UniProt C0HLV2 129-380, N-linked glycans at N145 and N152).
T2 construct: neprosin from Nepenthes x ventrata, UniProt C0HLV2, catalytic domain S129-Q380 released by cleavage at P128-S129; C-terminal purification tag, numbered A401-I402-A403 + H404-H409; written as a part because it lies in the active-site cleft of a symmetry mate; also called neprosin CD; mature enzyme; source: human Expi293F cells; pro-neprosin purified (Ni-NTA), autolysis at pH 2.5, then SEC; in the …
T2 sequence: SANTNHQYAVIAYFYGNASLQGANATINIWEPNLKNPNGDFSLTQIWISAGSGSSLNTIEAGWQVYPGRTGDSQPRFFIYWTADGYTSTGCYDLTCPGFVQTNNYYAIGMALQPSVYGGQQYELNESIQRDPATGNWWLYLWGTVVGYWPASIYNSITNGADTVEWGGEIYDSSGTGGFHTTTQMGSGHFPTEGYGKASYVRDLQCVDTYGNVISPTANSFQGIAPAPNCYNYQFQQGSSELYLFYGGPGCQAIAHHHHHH
Briefly: crystal structure; orthorhombic crystals of pro-neprosin (native and Lu-Xo4 derivative), polypeptide cleaved at P128-S129; protein in 20 mM Tris-HCl pH 7.5, 150 mM NaCl; reservoir 0.1 M sodium acetate pH 4.0, 22% PEG 6000, 10% isopropanol, 20 °C. Particulars: both partners purified.

Like-named read-outs stand apart in the source and are kept apart here. Square brackets hold non-standard residues; d marks the D form. Peptide text beside a SMILES is read from it. * marks the point of attachment. Sta = CC(C)C[C@H](N)[C@@H](O)CC(=O)O; Isovaleryl = CC(C)CC(=O)*

`O=[N+]([O-])c1ccc(OCC2CO2)cc1` (stereo not drawn) [EPNP, 2-[(4-nitrophenoxy)methyl]oxirane]: in test [1], the IC50 is 480 µM. As for `CC(C)CC(=O)N[C@H](C(=O)N[C@H](C(=O)N[C@@H](CC(C)C)[C@@H](O)CC(=O)N[C@@H](C)C(=O)N[C@@H](CC(C)C)[C@@H](O)CC(=O)O)C(C)C)C(C)C` [pepstatin A] (Isovaleryl-VV[Sta]A[Sta]-OH), in test [1] (50 nM neprosin, 10 μM FS6-QPQL, 100 mM glycine pH 3.0, 37 °C, pre-incubated >1 h (pre-incubation stated for the inhibitor screen)), the concentration for half-maximal inhibition (IC50) amounted to 140 µM.

B1: neprosin pro-domain (PD, R25-P128) (domain or fragment, Nepenthes x ventrata, UniProt C0HLV2 25-128, looked up)
chain: RSIQARLANKPKGTIKTIKGDDGEVVDCVDIYKQPAFDHPLLKNHTLQMQPSSYASKVGEYNKLEQPWHKNGECPKGSIPIRRQVITGLPVVKKQFPNLKFAPP
notes: neprosin from Nepenthes x ventrata, UniProt C0HLV2, N-terminal pro-domain R25-P128: globular part A29-G112 and linker L113-P128; Defined in the map from A29 onwards; Y77-N86 and N122 onwards are disordered; also called cleaved PD; source: human Expi293F cells; pro-neprosin purified (Ni-NTA, SEC), found cleaved at P128-S129 in the crystals
In the case of B1, the binding result in test [2] is on record as “binds”.
